From article PMC6204601, “In Vivo Selectivity and Localization of Reactive Oxygen Species (ROS) Induction by Osmium Anticancer Complexes That Circumvent Platinum Resistance” (Journal of Medicinal Chemistry, 2018)

Tests used:
[1] = system: Singapore wild-type zebrafish embryos; format: in vivo, Danio rerio; details: for LC50: zebrafish embryos, 96 h exposure, read-out: LC50 (Danio rerio) SG-WT
Experimental: (§1) In vivo biological studies […]
(§2) wild-type zebrafish (SGWT) embryos (< 5 dpf). All animals were maintained in accordance with ASPA […]
(§3) maintained. Light cycle: 14 hours day, 10 hours night.
1 L breeding tank. Pairs were set up the previous evening. Males and females were separated by a divider. The divider was removed around 9am (dawn). Embryos were collected and placed into petri dishes with fresh egg water. […]

[2] = system: A549 lung carcinoma cells; assay: Sulforhodamine B antiproliferative assay, A549; format: cell-based, human; details: 24 h drug exposure + 72 h recovery, SRB
A2780 cancer cells [3] = assay: ROS/superoxide detection by flow cytometry, A2780; details: A2780, 24 h, 1.0 × IC50 (pyocyanin positive control 0.1 mM); for % Population Q1 FL1-H- / FL2-H+: superoxide only; for % Population Q3 FL1-H+ / FL2-H-: total ROS only
Experimental: (§10) Reactive oxygen species (ROS) determination using flow cytometry. The generation of ROS and
(§11) superoxide in A2780 ovarian cancer cells was evaluated using the ROS/Superoxide detection kit (Enzo
(§12) Life Sciences) following the manufacturer’s protocol.
(§13) cells per well, and incubated for 24 h (310 K). After this time, cells were exposed to equipotent
The pellets were re-suspended in 500
(§14) μL PBS and stained with green fluorescent reagent for total ROS reading in the FL1-green channel (2
(§15) μL) and orange fluorescent reagent for superoxide reading in the FL2-red channel (2 μL). Positive
(§16) control samples were treated with pyocyanin (5 μL, 30 min). Single stained positive control samples
(§17) were used for compensation purposes. Data were obtained using a Becton Dickson FACScan Flow
(§18) Cytometer and processed using FlowJo V10 for Windows.

[4] = system: HCT116 colorectal carcinoma cells; assay: Sulforhodamine B antiproliferative assay, HCT116; format: cell-based, human; details: 24 h drug exposure + 72 h recovery, SRB; read-out: Antiproliferative activity (IC50) HCT116 Colon
[5] = system: AB wild-type zebrafish embryos; format: in vivo; details: 96 h exposure, read-out: LC50 (Danio rerio) AB-WT
[6] = system: HOF human ovarian fibroblasts; assay: Sulforhodamine B antiproliferative assay, HOF; format: cell-based; details: 24 h drug exposure + 72 h recovery, SRB; non-cancer fibroblasts
Experimental: (§4) In vitro biological studies
(§5) Sulforhodamine B cell viability colorimetric assay.
(§6) by ICP-OES analysis for metal content).
(§7) 72 h recovery time (310 K).
(§8) using slowly-running tap water and air dried.
(§9) Data were processed using Microsoft Excel

[7] = system: MRC5 human lung fibroblasts; assay: Sulforhodamine B antiproliferative assay, MRC5; format: cell-based; details: 24 h drug exposure + 72 h recovery, SRB; non-cancer fibroblasts
Experimental: as §4, §5, §6, §7, §8, §9
IC50 values (concentrations at which […]
After this time, cells were […]

[8] = system: Tubingen wild-type zebrafish embryos; assay: Zebrafish embryo toxicity (FET) test, TU-WT; format: in vivo; details: 96 h exposure, read-out: LC50 (Danio rerio) TU-WT
[9] = system: HCT116Ox oxaliplatin-resistant colorectal carcinoma cells; assay: Sulforhodamine B antiproliferative assay, HCT116Ox; format: cell-based, human; details: 24 h drug exposure + 72 h recovery, SRB, read-out: Antiproliferative activity (IC50) HCT116Ox Colon
[10] = system: A2780Cis cisplatin-resistant ovarian carcinoma cells; assay: Sulforhodamine B antiproliferative assay, A2780Cis; format: cell-based, human; details: 24 h drug exposure + 72 h recovery, SRB
A2780 cancer cells [11] = details: A2780, 20 μM verapamil, normalised Os
Experimental: as §4
Cell culture. All cell lines were obtained from the European Collection of Cell Cultures (ECACC). […]
supplemented with 10% foetal calf serum, 1% 2 mM glutamine and 1% penicillin/streptomycin.
HCT116, HCT1116Ox, HCT116p21-/- and HCT116p53-/-, all of colon origin, were grown in McCoy’s Modified 5A medium supplemented with 10% foetal calf serum, 1% 2 mM glutamine and 1% penicillin/streptomycin. HOF normal ovarian fibroblasts were grown in fibroblast growth medium supplemented with 2% foetal calf serum, 1% 2 mM penicillin/streptomycin and 1% fibroblast growth factor. Cells were grown as adherent monolayers in 75 cm2 culture flasks at 310 K in a 5% CO2 humidified atmosphere and passaged at regular intervals using trypsin-EDTA.
After this time, the cells were washed with PBS and supplied
Sulforhodamine B cell viability colorimetric assay. Briefly, 5000 cells were seeded in a 96-well plate […]
mM) were prepared in medium with 5% v/v DMSO (concentration was determined after drug exposure by ICP-OES analysis for metal content). […] Cell viability was determined using the Sulforhodamine B assay.1 Cells […]
50% cell death occurred) are reported as averages with calculated standard deviations. Experiments were performed in triplicate as part as two independent experiments, and statistics calculated using two-tailed t-test assuming unequal variances (Welch’s t-test). […]

[12] = system: HCT116p53-/- P53-knockout colorectal carcinoma cells; assay: Sulforhodamine B antiproliferative assay, HCT116p53-/-; format: cell-based, human; details: 24 h drug exposure + 72 h recovery, SRB, read-out: Antiproliferative activity (IC50) HCT116p53-/- Colon
[13] = system: Singapore wild-type zebrafish; details: 1 or 2× LC50, 96 h, green ROS probe, confocal
Experimental: as §1, §2, §3
1 L breeding tank. Pairs were set up the previous evening. Males and females were separated by a divider. The divider was removed around 9am (dawn). Embryos were collected and placed into petri dishes with fresh egg water.
Confocal microscopy (zebrafish). […]
or positive control samples.

[14] = system: HCT116p21-/- P21-knockout colorectal carcinoma cells; assay: Sulforhodamine B antiproliferative assay, HCT116p21-/-; format: cell-based, human; details: 24 h drug exposure + 72 h recovery, SRB, read-out: Antiproliferative activity (IC50) HCT116p21-/- Colon
[15] = system: HOF human ovarian fibroblasts; assay: ROS/superoxide detection by flow cytometry, HOF; details: 24 h, 1.0 × IC50 (pyocyanin positive control 0.1 mM); for % Population Q2 FL1-H+ / FL2-H+: ROS and superoxide; for % Population Q1 FL1-H- / FL2-H+: superoxide only; for % Population Q3 FL1-H+ / FL2-H-: total ROS only
Experimental: as §10, §11, §12, §13
The pellets were re-suspended in 500
as §14, §15, §16, §17, §18

[16] = system: A2780 ovarian carcinoma cells; assay: Sulforhodamine B antiproliferative assay, A2780; format: cell-based, human; details: 24 h drug exposure + 72 h recovery in drug-free medium, SRB; read-out: Antiproliferative activity (IC50) A2780 Ovarian
[17] = system: HCT116 human colorectal cancer cells xenografts; details: cited from earlier work
[18] = CV vs Ag/AgCl, 100 mV/s, 10^–3 M, CH3CN; electrochemically reversible

SMILES	LC50 [1] [µM]	IC50 [2] [µM]	% Population Q4 FL1-H- / FL2-H- (A2780 cancer cells [3]) [%]	% Population Q1 FL1-H- / FL2-H+ (A2780 cancer cells [3]) [%]	% Population Q3 FL1-H+ / FL2-H- (A2780 cancer cells [3]) [%]	IC50 [4] [µM]	LC50 [5] [µM]	IC50 [6] [µM]	IC50 [7] [µM]	LC50 [8] [µM]	IC50 [9] [µM]	IC50 [10] [µM]	IC50 [12] [µM]	ROS generated in vivo in zebrafish [13]	IC50 [14] [µM]	% Population Q4 FL1-H- / FL2-H- [15] [%]	% Population Q2 FL1-H+ / FL2-H+ [15] [%]	% Population Q1 FL1-H- / FL2-H+ [15] [%]	% Population Q3 FL1-H+ / FL2-H- [15] [%]	IC50 [16] [µM]	other results
Cc1ccc(C(C)C)cc1.Cc1ccc(S(=O)(=O)[N-]C(c2ccccc2)C([NH-])c2ccccc2)cc1.[Os+2] (stereo not shown) [Complex 1, [Os(p-cymene)(Ts-DPEN)]]	2.4 ± 0.4	21.1 ± 0.3	2.4 ± 0.9	1.2 ± 0.2	0.3 ± 0.1	37 ± 1	4.3 ± 0.7	29.9 ± 0.5	21.4 ± 0.7	2.6 ± 0.3	51 ± 2	21.6 ± 0.2	62 ± 3	elevated levels of ROS	106 ± 2	7.3 ± 0.5	38 ± 1	9.1 ± 0.8	45.4 ± 0.7	15.5 ± 0.5	% accumulation (recovery time) 48 h (A2780 cancer cells [11]): 30 ± 2%; % accumulation (recovery time) 72 h (A2780 cancer cells [11]): 17.8 ± 0.3%
CN(C)c1ccc(N=Nc2ccccn2)cc1.Cc1ccc(C(C)C)cc1.F[P-](F)(F)(F)(F)F.[I][Os+] [Complex 10, [Os(Azpy-NMe2)(p-cymene)I]PF6]	24.3 ± 0.4	1.1 ± 0.2	0.41 ± 0.02	1.65 ± 0.09	2.47 ± 0.08	0.26 ± 0.03	16.8 ± 0.8	2.32 ± 0.01	4.5 ± 0.3	17 ± 1	0.96 ± 0.05	0.15 ± 0.01	1.1 ± 0.07	elevated levels of ROS	1.64 ± 0.08	3.9 ± 0.3	61 ± 1	11.3 ± 0.5	24.1 ± 0.9	0.15 ± 0.01	Fold less toxic toward zebrafish embryos compared to cisplatin ([1]; LC50 ratio vs cisplatin): 40 ×; Effect on growth of xenografts ([17]; HCT116 xenografts in mice): delay the growth of xenografts; Toxic side effects in xenograft-bearing mice ([17]; xenograft-bearing mice): few toxic side effects; First reduction step potential [18]: ca. −0.4 V
